According to patent publication US20250304623A1, “PEPTIDES FOR INTRACELLULAR DELIVERY” (UNIVERSIDADE DE SANTIAGO DE COMPOSTELA, priority 2022, published 2025):
*: point of attachment. NHNH2 = NN*

Legend:
Type in all cases: cell-based
ARPE19 cells = test: EGFP mRNA delivery, robotic library screening, ARPE19
Procedure: (§1) Cells were seeded in a 96 well plate the day before the experiment at a concentration of 50,000 cell/mL (100 μL/w) in DMEM+10% FBS+1% Gln-Abt. For robotic library screening, the delivery of EGFP-mRNA (from TriLink, fully substituted with 5-methoxyuridine, capped and polyadenylated; TriLink, CleanCap® EGFP mRNA (5moU), ref. L-7201) in six different cell lines was performed. Amphiphilic molecule stock solutions were prepared in DMSO as described above and diluted in DMEM to afford a range of concentrations. The solutions of EGFP-mRNA/amphiphilic molecule complexes were freshly prepared prior to the transfection experiments. 35 μL of the corresponding amphiphile were added to 10 μL of a solution of EGFP-mRNA at 10 ng/μL in DMEM. The mixture was shaken for 30 min at room temperature before the addition to the cells. The cell medium was aspirated, and cells were washed with PBS twice. Cells were covered with 39 μL of DMEM and 11 μL of the complex's solution were added to the cells and incubated for 4 h (final concentration of peptide=2.5, 5 and 10 μM; final concentration of EGFP-mRNA=25 ng/well). After the incubation, the medium was replaced by 100 μL of fresh DMEM supplemented with 10% FBS. The total EGFP fluorescence was quantified after 72 h in a well plate reader. Amphiphile transfection efficiency was compared and normalized to Lipofectamine® MessengerMax efficiency (value of 1 in Tables 1-5 and 7; double underlined numbers). All experiments were done in triplicate.
(§2) Tables 1-7: RLuc (pDNA) or EGFP (mRNA) expression levels were normalized to Lipofectamine reagents (value=1) and expressed as fold-times signal increase. In the case of siRNA, the siRNA treated cells fluorescence was compared with siMOCK control fluorescence, while Cas9-RNP mediated knockout was measured against the fluorescence of untreated cells. In both siRNA and Cas9-RNP, values are expressed as % fluorescence reduction. Amphiphile concentration was 5 μM in all cases. All experiments were performed in triplicate.
(§3) Tables 14-19 show the mean (triplicates) fluorescence intensity measured after the transfection of EGFP mRNA by different amphiphiles at different concentrations in a variety of cell lines. Background fluorescence values, accounted by untreated control cells, were subtracted for processing.

HepG2 cells = test: EGFP mRNA delivery, robotic library screening, HepG2; details: HepG2 cells
Procedure: as §1, with “Cells were covered with 39 μL of DMEM and 11 μL of the complex's solution were added to the cells and incubated for 4 h (final concentration of peptide=2.5, 5 and 10 μM; final concentration of EGFP-mRNA=25 ng/well).” left out
as §2, §3

[1] = system: HCT116 cells expressing EGFP; test: EGFP-targeting siRNA delivery (GFP silencing vs siMOCK), HCT116
Procedure: To generate an EGFP expressing HeLa cell line, HeLa cells were transfected with EGFP pDNA (pEGFP-C1, Clontech) and stable transfectants were selected with 400 μg/mL of G-418 (Millipore). Green clones were selected by epifluorescence microscopy and tested for EGFP expression stability through several passages. […] All other EGFP-expressing cell lines were obtained in a similar way from parent non-EGFP-expressing cell lines.
Cells expressing EGFP were seeded in a 96 well plate the day before the experiment at a concentration of 50,000 cell/mL (100 μL/w) in DMEM+10% FBS+1% Gln-Abt. For robotic library screening, the delivery of an EGFP-targeting siRNA (EGFP: enhanced green fluorescent protein, Ambion® Silencer® GFP Positive Control siRNA (siGFP) (AM4626)) in six different cell lines expressing EGFP was performed. Amphiphilic molecules stock solutions in DMSO were diluted with DMEM and freshly mixed with siRNA stock solutions in DMEM prior to transfection experiments, to afford several complexes at different amphiphile concentration (2-10 μM) while maintaining a constant final siRNA concentration of 30 nM. The mixture was shaken for 30 min at room temperature (rt) before the addition to the cells. The cell medium was aspirated, and cells were washed twice with PBS. Finally, 50 μL of the solution of siRNA/amphiphile complexes were added to the cells and incubated for 4 h. After transfection, the medium was replaced by 100 μL of fresh DMEM supplemented with 10% FBS. The fluorescence knockdown was quantified after 72 h in a plate reader, by comparison with cells transfected with a non-targeting siRNA control (siMOCK, Silencer™ Negative Control No. 1 siRNA (siMOCK) (AM4611)). EGFP knockdown was compared with Lipofectamine® RNAiMAX silencing efficiency (30-60% depending on cell line, defined with a numeric value in the below tables). All experiments were done in triplicate.
as §2
Tables 20-25 show the mean (triplicates) percentage of GFP-silencing, accounted by fluorescence intensity decrease relative to a non-targeting siRNA (siMOCK) control, measured after the transfection of siRNA by different amphiphiles at different concentrations in a variety of cell lines. Background values, accounted by untreated control cells, were subtracted for processing.

Which results are given for “Ac-RHLK*RLK*RRLK*RL-NH2 (Ac-RHLKRLKRRLKRL-NH2; not fully specified (residues 4, 7, 11); printed as Ac-RHLK*RLK*RRLK*RL-NH2; also: linker on K* not given here) [13(Arg-His)]”?
mean fluorescence intensity (EGFP mRNA) (ARPE19 cells; Petroselinyl, 5 μM): 472; mean fluorescence intensity (EGFP mRNA) (ARPE19 cells; Petroselinyl, 10 μM): 216; mean fluorescence intensity after transfection of EGFP mRNA (HepG2 cells; Dodecanal, 10 μM): 782; mean fluorescence intensity after transfection of EGFP mRNA (HepG2 cells; Dodecanal, 15 μM): 868; mean fluorescence intensity after transfection of EGFP mRNA (HepG2 cells; Oleyl, 5 μM): 5251; mean fluorescence intensity after transfection of EGFP mRNA (HepG2 cells; Palmitoleyl, 5 μM): 4616; mean fluorescence intensity after transfection of EGFP mRNA (HepG2 cells; Palmitoleyl, 10 μM): 2070; mean fluorescence intensity after transfection of EGFP mRNA (HepG2 cells; Palmitoleyl, 15 μM): 1943; mean fluorescence intensity after transfection of EGFP mRNA (HepG2 cells; Petroselinyl, 5 μM): 1986; mean fluorescence intensity after transfection of EGFP mRNA (HepG2 cells; Petroselinyl, 10 μM): 508; percentage of GFP-silencing relative to siMOCK ([1]; Dodecanal, 5 μM): 65%; percentage of GFP-silencing relative to siMOCK ([1]; Myristoleyl, 5 μM): 62%; percentage of GFP-silencing relative to siMOCK ([1]; Myristoleyl, 10 μM): 24%; percentage of GFP-silencing relative to siMOCK ([1]; Palmitoleyl, 5 μM): 64%; percentage of GFP-silencing relative to siMOCK ([1]; Petroselinyl, 5 μM): 56%

For “Ac-RK*LRRLLRK*-NH2 (Ac-RK(NHNH2)LRRLLRK(NHNH2)-NH2; not fully specified; printed as Ac-RK*LRRLLRK*-NH2; also: K*2,K*9: native or modified lysine (ε-amide to a linker)) [Peptide 9.2]”, which “mean fluorescence intensity (EGFP mRNA)” value (ARPE19 cells; Myristoleyl, 2.5 μM) is on record?
Its value is 1377.

What about the “mean fluorescence intensity (EGFP mRNA)” value (ARPE19 cells; Myristoleyl, 5 μM) of the same substance?
The value was 941.

What about the “percentage of GFP-silencing relative to siMOCK” value ([1]; Dodecanal, 5 μM) of the same substance?
The value was −7%.

What about the “percentage of GFP-silencing relative to siMOCK” value ([1]; Dodecanal, 10 μM) of the same substance?
Its value is 3%.

And the “percentage of GFP-silencing relative to siMOCK” value ([1]; Dodecanal, 15 μM)?
The value was 11%.

What about the “percentage of GFP-silencing relative to siMOCK” value ([1]; Myristoleyl, 10 μM) of the same substance?
The value was −9%.

And the “percentage of GFP-silencing relative to siMOCK” value ([1]; Myristoleyl, 15 μM)?
Its value is −38%.

What does the source list for “Ac-RRLK*RLLRRLK*RL-NH2 (Ac-RRLK(NHNH2)RLLRRLK(NHNH2)RL-NH2; not fully specified; printed as Ac-RRLK*RLLRRLK*RL-NH2; also: K*4,K*11: native or modified lysine (ε-amide to a linker)) [Peptide 13.2]”?
mean fluorescence intensity after transfection of EGFP mRNA (HepG2 cells; Oleyl, 5 μM): 612; percentage of GFP-silencing relative to siMOCK ([1]; Dodecanal, 5 μM): 25%; percentage of GFP-silencing relative to siMOCK ([1]; Dodecanal, 10 μM): 41%; percentage of GFP-silencing relative to siMOCK ([1]; Dodecanal, 15 μM): 18%; percentage of GFP-silencing relative to siMOCK ([1]; Oleyl, 5 μM): 45%; percentage of GFP-silencing relative to siMOCK ([1]; Oleyl, 10 μM): 43%; percentage of GFP-silencing relative to siMOCK ([1]; Oleyl, 15 μM): 10%
